Article PMC5554167, “Intestinal transepithelial permeability of oxytocin into the blood is dependent on the receptor for advanced glycation end products in mice” (Scientific Reports, 2017)

Experiments:
[1] = [3H]OT administered to lactating rats; cited from earlier work
[2] = Plasma OT after intestinal delivery of OT in pups (EIA); assay type: in vivo, mice
Method: To confirm that the above increase after oral administration was primarily owing to permeability from the intestine, 5 μL of 100 μM OT (0.5 μg/pup) was applied directly into the small intestine, bypassing the mouth, buccal mucosal membrane, and/or upper parts of the digestive tract, including the oesophagus and stomach. The plasma OT in blood samples collected from the neck (Fig. 2a, inset) reached a peak at 10 min and decreased at 60 min and 120 min after intestinal application (Supplementary Fig. 1). […] The plasma OT level was higher at PND1 and PND3 than at PND7 in the group injected with OT (***P < 0.001 and **P < 0.01; Fig. 2a).
OT (100 μM) was injected through needles (28 G) into the proximal part (1~2 cm from the pylorus) of the small intestine of pups (5 μL) and adults (100 μL) under ketamine anaesthesia ([…] intraperitoneally), after the abdominal skin was cut to expose the small intestine in the abdominal cavity. The intestine was returned to the cavity or covered with paper and rinsed with saline. For the isolated pup intestines, 30 μL of 10 μM OT was injected at the distal end.
(§1) Approximately 30 μL of blood was collected from the facial vein of neonates after quick cold anesthesia on ice (Fig. 1a; ref. [67], [68]). […]
(§2) OT or AVP immunoreactivity levels were quantified by using OT and AVP enzyme immunoassay (EIA) kits (Enzo Life Sciences, NY, USA), respectively. […]

[3] = Plasma OT after oral delivery of OT in pups (EIA); assay type: in vivo, mice; conditions: both sexes, C57BL/6N, 1 μg/mouse, wild-type pups PND6, oral 1 μg of OT/mouse, n = 5–8, read-out: Time of peak plasma OT concentration (converted)
Method: The possibility of transport during the suckling period of development (from PND1 to PND15) was confirmed by comparing plasma OT levels at 10 min after oral delivery with 10 μL of 100 μM synthetic OT solution (1 μg/pup) or the same volume of phosphate buffered saline (PBS) to male and female pups after fasting for 30 min. […] The plasma OT concentrations after oral OT delivery remained at higher levels at PND3–5 than in the saline controls (two-way analysis of variance (ANOVA), F 8.90 = 3.32, P < 0.002: Bonferroni’s post hoc tests for differences between OT and PNDs (^a P < 0.001, ^b P < 0.01, and ^c P < 0.05 from the value at PND8) and between OT and PBS (^d P < 0.01). The OT concentration dropped suddenly after PND6, although it remained higher than that in the saline control group. At PND8 and PND15, no concentration difference in plasma OT levels was observed between pups orally administered OT vs. those administered PBS.
The time profile of the plasma OT concentration after oral administration of OT peaked at 10 min in pups at PND6 (n = 5–8, one-way ANOVA, F 5,37 = 3.302, P < 0.02 from the control value; Fig. 1c). The plasma OT level depended on the oral OT dose in pups at PND6 (one-way ANOVA, F 3,24 = 20.35, P < 0.0001; Fig. 1d). […]
as §2

[4] = cited from earlier work
Excerpt: Breast milk contains a dynamic supply of hormones, including oxytocin (OT[4], [5], [10]–[15]), which is concentrated from the mother’s general circulation. […] OT in early life plays a role in the development of the social brain and in establishing social behaviour in adults, [20]–[23]. Therefore, breast milk not only nourishes beneficial microbes and provides immunity but also appears to improve well-being by improving human communication, [24]–[28]. Altho ...

[5] = much longer in mucosal tissues; cited from earlier work
Excerpt: OT absorption through the intestine was more difficult to detect in adults. The reasons for this difference with age may be owing to the progressive digestion of OT and strengthening of the gastrointestinal tract barrier. Similarly, a gradual decline in plasma OT concentrations during development appears to be caused by establishment of the intestinal barrier and intestinal digestion (Ref. [49] and Fig. 3d). Digestion is at a low level at birth and increases progressively during the first week in mice and humans. However, digestion of OT takes more than 30 min and is much longer in mucosal ...

[6] = Plasma OT after suckling of dam's milk in pups, estimate of availability; assay type: in vivo, mice
Method: […] No clear difference in the OT level was observed between male and female pups.
An estimation of bioavailability was performed in adult mice. Fifty ng/mL of OT was detected after oral delivery of 10 μg of OT. Young adults weigh approximately 30 g and have 2.3 mL blood, so approximately 1% of oral OT can be absorbed. We have previously identified OT in the mammary tissues of mouse dams and in the milk curd inside the oesophagi of pups[13]. To determine the OT concentrations in milk, we needed to collect milk from the mothers. One common method is to collect milk after stimulating secretion with external OT. Because such milk contains external OT, we were unable to calculate the OT concentrations in milk. However, we carried out a new collection method without exogenous OT stimulation. We obtained samples at 5 days after parturition, and the concentration of milk OT was 1,200 pg/mL. If we estimate a pup’s milk intake to be 100 μL, the pups will ingest 120 pg of OT. […] According to Tanaka et al.[11], when [^3H]OT is administered to lactating rats, the radioactivity of intact OT in the neonatal content is 4.4% of the counts obtained for the maternal plasma. […]
as §2

[7] = Plasma OT after oral delivery of OT in adult mice (EIA); assay type: in vivo
Method: In adult male mice (8 weeks old), when oral OT was administered at the same dose used for neonates (1 μg/mouse), as in Fig. 1b, no increase in the plasma OT concentration was observed (data not shown). To examine whether permeability exists in the adult intestine after barrier formation, a 10-fold higher volume of OT (100 μM × 100 μL) was used for oral delivery (10 μg/mouse). Blood samples were collected from anesthetized mice using a tail snip procedure, and OT concentrations were measured (Fig. 5a, inset).
Milk-borne OT was fed by mothers for 20 min after 20 min of starvation. A synthetic OT solution (100 µM; 10 μL for pups and 100 μL for adults) was administered orally. The same dose of [ILe^13C, ^15N]OT was delivered orally to pups. For oral administration, pups or adult mice were held by hand, and the OT solution was dispensed into their mouths using polypropylene tips.
as §1, §2

| Compound | Radioactivity of intact OT in the neonatal content, % of the counts of maternal plasma [1] [%] | Tmax ([2]; both sexes, C57BL/6N, mouse, plasma, pups (PND5, Supplementary Fig. 1), 0.5 μg/pup into the small intestine, read-out: Time of peak plasma OT concentration (converted)) [min] | Decrease of plasma OT concentration from PND1 to PND7 ([2]; wild-type pups, 10 min after intestinal OT injection (0.5 μg/pup)) | Tmax [3] [min] | Stability in gastric acid [4] | Time for digestion of OT [5] | Availability of milk OT ([6]; PND5 pups, milk OT 1,200 pg/mL, milk intake 100 μL (120 pg), blood volume 200 μL, increase 20 pg) [%] | Increase of plasma OT after suckling ([6]; pups fed with dam's milk) | Change of plasma OT concentration ([7]; adult male mice (8 weeks old), oral 1 μg/mouse, data not shown) | Oral OT absorbed (estimated bioavailability) ([7]; adult mice, oral 10 μg of OT, assumes 30 g weight and 2.3 mL blood) |
| --- | --- | --- | --- | --- | --- | --- | --- | --- | --- | --- |
| [^3H]OT: tritium-labelled oxytocin administered to lactating rats in a cited study | 4.4 | – | – | – | – | – | – | – | – | – |
| CC[C@H](C)[C@@H]1NC(=O)[C@H](Cc2ccc(O)cc2)NC(=O)[C@@H](N)CSSC[C@@H](C(=O)N2CCC[C@H]2C(=O)N[C@@H](CC(C)C)C(=O)NCC(N)=O)NC(=O)[C@H](CC(N)=O)NC(=O)[C@H](CCC(N)=O)NC1=O [OT, oxytocin] | – | 10 | approximately 4.6 fold | 10 | relatively stable | more than 30 min | 16.6 | approximately 100 pg/mL | no increase | approximately 1% |
